# Measurements published in article PMC13198257, “An aerosolized dual-action autotaxin inhibitor-PPARγ agonist for the treatment of pulmonary fibrosis” (Cell Reports Medicine, 2026).
# System: lung gene expression
# Test: RNA sequencing of lung tissue (BLM/EL244 vs BLM)
# Format: in vivo, mouse
# Procedure: RNA quality was assessed using an Agilent TapeStation 4150 with the High Sensitivity […] ScreenTape (Agilent), according to the manufacturer’s protocols. For library preparation, the QuantSeq 3’mRNA-Seq Library Prep Kit (Lexogen) was used according to manufacturer’s instructions. Briefly, 500 ng of RNA from each sample was used for first-strand synthesis, followed by RNA template removal, and second-strand synthesis initiated by random primers. In-line barcodes were introduced at this step, and this was followed by magnetic bead-based purification. The resulting libraries were amplified for 15 cycles and re-purified, with quantity and quality assessed on a Qubit 4 Fluorometer with the Invitrogen Qubit dsDNA HS Assay and an Agilent Tapestation 4150 with the High Sensitivity D1000 assay kit, respectively. The quantified libraries were pooled equimolarly; 50ng of total library mix was used for Adapter Conversion PCR Amplification using the Universal Library Conversion Kit (App-A), Version: V1.0 (MGI Tech Co., Ltd.), according to the manufacturer’s instructions.
# The quantity and quality of the purified adapter conversion PCR (AC-PCR) product were evaluated on a Qubit 4 Fluorometer with the Invitrogen Qubit dsDNA HS Assay and on an Agilent Tapestation 4150 with the High Sensitivity D1000 assay kit, respectively. This was followed by DNA denaturation, Single-Strand Circularisation, Enzymatic Digestion, Enzymatic Digestion Product Cleanup and Quality Control steps on 1 pmol of AC-PCR product, according to the Universal Library Conversion Kit (App-A) User Manual (Version: A3).
# Finally, 60 fmol of ssCirDNA were used for DNB preparation and sequencing on a DNBSEQ-G400 platform at the BSRC Alexander Fleming Genomics Facility, using a G400 App-A FCS SE100 High-throughput Sequencing Set (MGI Tech Co., Ltd.), according to the manufacturer’s instructions.
# Alignment of the FASTQ files was performed against the mouse genome build mm10 using a custom Bash script.[143] Read counting on the 3′ UTRs and differential expression analysis were conducted using the metaseqR2 bioconductor package.[144] Genes corresponding to the following biotypes were excluded: polymorphic_pseudogene, processed_transcript, pseudogene, IG_V_pseudogene, misc_RNA, IG_C_gene, IG_J_gene, IG_D_gene, IG_LV_gene, TR_V_gene, TR_V_pseudogene, TEC, and processed_pseudogene. Gene counts were normalized with DESEQ[145] through metaseqR2. Genes with more than 10 counts in at least 50% of the samples were kept for further processing. For differential expression analysis, the PANDORA algorithm[146] was used to estimate a meta p-value integrating the results from the DESEQ, DESEQ2,[147] edgeR,[148] limma,[149] NBPSeq,[150] and NOISeq[151] algorithms. All additional parameters were set to default values.
# Pathway enrichment analysis was performed for the Gene Ontology Biological process (BP) and Molecular Function (MF) terms through GeneCodis 4.[152] The volcano plots, scatterplots, Venn diagrams, and dot plots were generated using the ggplot2 Bioconductor package.
structure (smiles),measurement,setting,value
"O=C1NC(=O)C(Cc2ccc(OCCC3CCN(C(=O)OCc4cc(Cl)cc(Cl)c4)CC3)cc2)S1 (stereo not drawn) [EL244, 3,5-dichlorobenzyl 4-(2-(4-((2,4-dioxothiazolidin-5-yl)methyl)phenoxy)ethyl)piperidine-1-carboxylate]",Igfbp3 log2 nFC BLM/EL244 vs BLM,"DEG Igfbp3, nFC: normalised fold change",1.75
same,Igfbp6 log2 nFC BLM/EL244 vs BLM,"DEG Igfbp6, nFC: normalised fold change",1.68
same,Il6ra log2 nFC BLM/EL244 vs BLM,"DEG Il6ra, nFC: normalised fold change",0.84
same,log2 nFC BLM/EL244 vs BLM,DEG Ildr2,-1.32
same,Inmt log2 nFC BLM/EL244 vs BLM,"DEG Inmt, nFC: normalised fold change",1.34
same,Iqca log2 nFC BLM/EL244 vs BLM,"DEG Iqca, nFC: normalised fold change",0.87
same,log2 nFC BLM/EL244 vs BLM,DEG Iqgap3,-2.41
same,Itga2b log2 nFC BLM/EL244 vs BLM,"DEG Itga2b, nFC: normalised fold change",1.10
same,Itga8 log2 nFC BLM/EL244 vs BLM,"DEG Itga8, nFC: normalised fold change",0.88
same,log2 nFC BLM/EL244 vs BLM,DEG Itm2a,-1.25
same,Jdp2 log2 nFC BLM/EL244 vs BLM,"DEG Jdp2, nFC: normalised fold change",0.71
same,Kcne2 log2 nFC BLM/EL244 vs BLM,"DEG Kcne2, nFC: normalised fold change",1.32
same,log2 nFC BLM/EL244 vs BLM,DEG Kcnn4,-1.27
same,log2 nFC BLM/EL244 vs BLM,DEG Kdelr3,-1.25
same,log2 nFC BLM/EL244 vs BLM,DEG Kif14,-1.56
same,log2 nFC BLM/EL244 vs BLM,DEG Kif20a,-2.52
same,Klf3 log2 nFC BLM/EL244 vs BLM,"DEG Klf3, nFC: normalised fold change",0.69
same,Klf4 log2 nFC BLM/EL244 vs BLM,"DEG Klf4, nFC: normalised fold change",0.72
same,Klf9 log2 nFC BLM/EL244 vs BLM,"DEG Klf9, nFC: normalised fold change",0.85
same,Klf15 log2 nFC BLM/EL244 vs BLM,"DEG Klf15, nFC: normalised fold change",1.42
same,Klrc1 log2 nFC BLM/EL244 vs BLM,"DEG Klrc1, nFC: normalised fold change",1.38
same,Kndc1 log2 nFC BLM/EL244 vs BLM,"DEG Kndc1, nFC: normalised fold change",1.05
same,log2 nFC BLM/EL244 vs BLM,DEG Knstrn,-2.52
same,log2 nFC BLM/EL244 vs BLM,DEG Kntc1,-1.39
same,Krt79 log2 nFC BLM/EL244 vs BLM,"DEG Krt79, nFC: normalised fold change",1.75
same,log2 nFC BLM/EL244 vs BLM,DEG Lama1,-2.43
same,Ldb3 log2 nFC BLM/EL244 vs BLM,"DEG Ldb3, nFC: normalised fold change",1.52
same,Lncpint log2 nFC BLM/EL244 vs BLM,"DEG Lncpint, nFC: normalised fold change",1.06
same,Lrat log2 nFC BLM/EL244 vs BLM,"DEG Lrat, nFC: normalised fold change",1.15
same,Lrrc74b log2 nFC BLM/EL244 vs BLM,"DEG Lrrc74b, nFC: normalised fold change",1.02
same,log2 nFC BLM/EL244 vs BLM,DEG Ltbp2,-1.44
same,Ltbp4 log2 nFC BLM/EL244 vs BLM,"DEG Ltbp4, nFC: normalised fold change",0.81
same,log2 nFC BLM/EL244 vs BLM,DEG Lum,-1.32
same,Lyve1 log2 nFC BLM/EL244 vs BLM,"DEG Lyve1, nFC: normalised fold change",0.96
same,Map3k6 log2 nFC BLM/EL244 vs BLM,"DEG Map3k6, nFC: normalised fold change",0.95
same,Mapt log2 nFC BLM/EL244 vs BLM,"DEG Mapt, nFC: normalised fold change",0.89
same,log2 nFC BLM/EL244 vs BLM,DEG Mark1,-1.23
same,log2 nFC BLM/EL244 vs BLM,DEG Matk,-1.42
same,Mb log2 nFC BLM/EL244 vs BLM,"DEG Mb, nFC: normalised fold change",2.27
same,Mcf2l log2 nFC BLM/EL244 vs BLM,"DEG Mcf2l, nFC: normalised fold change",0.95
same,log2 nFC BLM/EL244 vs BLM,DEG Mcm5,-1.33
same,log2 nFC BLM/EL244 vs BLM,DEG Mdk,-1.34
same,Mettl7a1 log2 nFC BLM/EL244 vs BLM,"DEG Mettl7a1, nFC: normalised fold change",0.80
same,Mir29c log2 nFC BLM/EL244 vs BLM,"DEG Mir29c, nFC: normalised fold change",0.89
same,log2 nFC BLM/EL244 vs BLM,DEG Mir147,-1.44
same,Mir6899 log2 nFC BLM/EL244 vs BLM,"DEG Mir6899, nFC: normalised fold change",0.84
same,Mir6979 log2 nFC BLM/EL244 vs BLM,"DEG Mir6979, nFC: normalised fold change",1.18
same,log2 nFC BLM/EL244 vs BLM,DEG Mis18bp1,-1.46
same,Mmp9 log2 nFC BLM/EL244 vs BLM,"DEG Mmp9, nFC: normalised fold change",1.20
same,log2 nFC BLM/EL244 vs BLM,DEG Mmp12,-2.48
same,log2 nFC BLM/EL244 vs BLM,DEG Mmp14,-1.31
same,Mpp3 log2 nFC BLM/EL244 vs BLM,"DEG Mpp3, nFC: normalised fold change",1.65
same,log2 nFC BLM/EL244 vs BLM,DEG Ms4a7,-1.49
same,Ms4a4d log2 nFC BLM/EL244 vs BLM,"DEG Ms4a4d, nFC: normalised fold change",1.15
same,log2 nFC BLM/EL244 vs BLM,DEG Msr1,-1.44
same,Mybpc3 log2 nFC BLM/EL244 vs BLM,"DEG Mybpc3, nFC: normalised fold change",2.06
same,Mybphl log2 nFC BLM/EL244 vs BLM,"DEG Mybphl, nFC: normalised fold change",2.33
